This is an account of results in US20040009511A1, “Identification of compounds which stimulate bone formation using a cell-based screening assay targeting BMP signaling” (priority 2002, published 2004).

Format in all cases: cell-based
Test [1] deals with 9×SBE-6×OSE2-OC-luc reporter construct in 2T3 C-17 cells. Kind of test: Luciferase assay, 9×SBE-6×OSE2-OC-luc reporter stably transfected in 2T3 clone C-17. Further details: Luciferase Activity: unit not given here. The following applies: for Maximal effect, fold increase in luciferase activity: over the concentrations tested; for Luciferase Activity / Effect on luciferase activity of the reporter construct / Luciferase Activity (fold increase) / Luciferase Activity, value in parentheses (fold increase): 24 hours. As to the method:
(§1) An oligonucleotide containing 9 copies of Smad1 response element (9×SBE) and 6 copies of Cbfa1 response element (6×OSE2) was synthesized in the DNA laboratory at University of Texas Health Science Center at San Antonio. The osteocalcin basal promoter (OC, −155/+1) was amplified by Polymerase Chain Reaction (PCR) using mouse genomic DNA as a template and cloned into pGL3 vector. An 9×SBE-6×OSE2 oligonucleotide was cloned upstream of osteocalcin basal promoter.
(§2) C2C12 and 2T3 cells were plated in 6-well culture plates at densities of 4×10^5 and 2×10^5 cells/well and cultured with DMEM or α minimal essential medium (α MEM) supplemented with 10% FCS for 24 hours. A 9×SBE-6×OSE2-OC-luc-reporter construct (2 μg/well) was co-transfected with pcDNA3 empty vector (0.2 mg/well) in C2C12 and 2T3 cells using lipofactamine plus reagents (Gibco/BRL). Forty eight hours later, G418 (200 μg/ml) was added to the culture plates. Four weeks after G418 selection, the G418 resistant cells were plated in 96-well plates at the density of 1 cell/well and cloned by limiting dilution method.
(§3) C2C12 and 2T3 cells, in which 9×SBE-6×OSE2-OC-luc-reporter construct was stably transfected, were plated in 96-well culture plates at densities of 1×10^4 and 0.5×10^4 cells/well and cultured for 24 hours. The medium was changed to fresh medium supplemented with 2% FCS and different growth factors or hormone were added to culture medium for 24 hours or different compounds were added to culture medium for 2, 6, 12, 24 and 48 hours. The cell lysates were extracted and luciferase activities were determined by luciferase assay kit (Promega, Madison, Wis.) using a Luminometer.
(§4) At the end of the incubation, the cell lysates were extracted using lysis buffer and luciferase activities were measured using a luciferase assay kit (Promega).

Test [2] concerns 9×SBE-6×OSE2-OC-luc reporter construct in C2C12 C-10-62 cells. Kind of test: Luciferase assay, 9×SBE-6×OSE2-OC-luc reporter stably transfected in C2C12 clone C-10-62. The settings on record: for Effect on luciferase activity of the reporter construct: 24 hours; for Maximal effect, fold increase in luciferase activity: over the concentrations tested. As for the experimental part: as §1, §2, §3, §4

The subject of test [3] is 9×SBE-6×OSE2-OC-luc reporter construct. In words: Luciferase assay, 9×SBE-6×OSE2-OC-luc reporter construct, cells not specified.
Source text: as §1, §3
Further, a reporter construct which contains multiple copies of both Smad1 (SBE) and Cbfa1 (OSE2) response elements (9×SBE-6×OSE2-OC-luc) was made.

Where [4] appears, read: TN-16 0.039 μM, 2T3 cell clone 17.
Setting [5] is: TN-16 0.078 μM, 2T3 cell clone 17.
Where [6] appears, read: TN-16 0.156 μM, 2T3 cell clone 17.
Setting [7] is: TN-16 0.3125 μM, 2T3 cell clone 17.
Setting [8] is: TN-16 0.625 μM, 2T3 cell clone 17.
The mark [9] stands for this setting: TN-16 1.25 μM, 2T3 cell clone 17.
Setting [10] is: TN-16 2.5 μM, 2T3 cell clone 17.
Setting [11] is: 9-cis RA 1.25 μM, 2T3 cell clone 17.
Where [12] appears, read: 9-cis RA 2.5 μM, 2T3 cell clone 17.
Where [13] appears, read: 9-cis RA 5 μM, 2T3 cell clone 17.
The mark [14] stands for this setting: 9-cis RA 10 μM, 2T3 cell clone 17.
[15] abbreviates: 2-ME 1.25 μM, 2T3 cell clone 17.
[16] abbreviates: All-trans RA 1.25 μM, 2T3 cell clone 17.
Where [17] appears, read: All-trans RA 2.5 μM, 2T3 cell clone 17.
Where [18] appears, read: All-trans RA 5 μM, 2T3 cell clone 17.
The mark [19] stands for this setting: All-trans RA 10 μM, 2T3 cell clone 17.

Take TGF-β: the “Luciferase activity normalized to protein content” value in test [1] (2T3 C-17 cells) is given as “no significant effect”. Further, in test [1] (2T3 C-17 cells), the “Maximal effect, fold increase in luciferase activity” value (from here on “Maximal effect, fold increase”) turned out to be 3 fold. In addition, the “Luciferase Activity” value is 0.046 in test [1] (TGF-β 0.0195 ng/ml, 2T3 C-17 cells); 0.052 in test [1] (TGF-β 0.039 ng/ml, 2T3 C-17 cells); 0.053 in test [1] (TGF-β 0.078 ng/ml, 2T3 C-17 cells); 0.062 in test [1] (TGF-β 0.156 ng/ml, 2T3 C-17 cells); 0.08 in test [1] (TGF-β 0.3125 ng/ml, 2T3 C-17 cells); 0.09 in test [1] (TGF-β 0.625 ng/ml, 2T3 C-17 cells). The “Luciferase Activity” value is recorded as 0.102 in test [1] (TGF-β 1.25 ng/ml, 2T3 C-17 cells); 0.156 in test [1] (TGF-β 2.5 ng/ml, 2T3 C-17 cells); 0.077 in test [1] (TGF-β 5 ng/ml, 2T3 C-17 cells); 0.081 in test [1] (TGF-β 10 ng/ml, 2T3 C-17 cells). For the same molecule, the “Effect on luciferase activity of the reporter construct” value (“Effect on luciferase activity” below) in test [2] is listed as “no significant effects”.

In the case of `CC(Nc1ccccc1)=C1C(=O)NC(Cc2ccccc2)C1=O` (centres unmarked) [TN-16, reference compound], the “Effect on luciferase activity” value in test [1] (2T3 C-17 cells) is “stimulated the reporter construct in a dose-dependent manner”. The “Maximal effect, fold increase” value in test [1] (2T3 C-17 cells) is given as 5 fold. Moreover, the “Luciferase Activity” value is given as 0.022 in test [1] (setting [4]); 0.037 in test [1] (setting [5]); 0.036 in test [1] (setting [6]); 0.038 in test [1] (setting [7]); 0.057 in test [1] (setting [8]); 0.081 in test [1] (setting [9]). For the same molecule, the “Luciferase Activity” value in test [1] (setting [10]) stood at 0.079; in test [1] (TN-16 5 μM, 2T3 cell clone 17) it was 0.111; in test [1] (TN-16 10 μM, 2T3 cell clone 17), 0.098. For the same molecule, the “Luciferase Activity (fold increase)” value was 0.9 fold in test [1] (setting [4]); 1.6 fold in test [1] (setting [5]); 1.6 fold in test [1] (setting [6]); 1.6 fold in test [1] (setting [7]); 2.5 fold in test [1] (setting [8]); 3.5 fold in test [1] (setting [9]). For the same molecule, the “Luciferase Activity (fold increase)” value in test [1] (setting [10]) stood at 3.4 fold; in test [1] (TN-16 5 μM, 2T3 cell clone 17) it was 4.8 fold; in test [1] (TN-16 10 μM, 2T3 cell clone 17) it was 4.2 fold.

Regarding “acid FGF: Acidic Fibroblast Growth Factor”, the “Luciferase Activity” value in test [1] (acid FGF 0.195 ng/ml, 2T3 C-17 cells) amounted to 0.06; in test [1] (acid FGF 0.39 ng/ml, 2T3 C-17 cells) it was 0.057; in test [1] (acid FGF 0.78 ng/ml, 2T3 C-17 cells), 0.058; in test [1] (acid FGF 1.56 ng/ml, 2T3 C-17 cells), 0.051; in test [1] (acid FGF 3.125 ng/ml, 2T3 C-17 cells), 0.052; in test [1] (acid FGF 6.25 ng/ml, 2T3 C-17 cells) it was 0.054. Further, the “Luciferase Activity” value was found to be 0.051 in test [1] (acid FGF 12.5 ng/ml, 2T3 C-17 cells); 0.052 in test [1] (acid FGF 25 ng/ml, 2T3 C-17 cells); 0.058 in test [1] (acid FGF 50 ng/ml, 2T3 C-17 cells); 0.075 in test [1] (acid FGF 100 ng/ml, 2T3 C-17 cells). Further, in test [2], the “Effect on luciferase activity” value is “no significant effects”.

Take `CC1=C(/C=C/C(C)=C\C=C\C(C)=C\C(=O)O)C(C)(C)CCC1` [9-cis RA, 9-cis retinoic acid, reference compound]: the “Maximal effect, fold increase” value in test [1] (2T3 C-17 cells) and in test [2] was 5 fold in each case. Also, the “Luciferase Activity” value is 0.160 in test [1] (setting [11]), 0.160 in test [1] (setting [12]), 0.164 in test [1] (setting [13]) and 0.226 in test [1] (setting [14]). For the same molecule, the “Luciferase Activity, value in parentheses (fold increase)” value in test [1] (setting [11]) was 3.6 fold; in test [1] (setting [12]), 3.6 fold; in test [1] (setting [13]), 3.6 fold; in test [1] (setting [14]) it was 5.0 fold.

For `COc1cc2c(cc1O)CC[C@@H]1[C@@H]2CC[C@]2(C)[C@@H](O)CC[C@@H]12` [2-ME, 2-methoxyestradiol, reference compound], the “Luciferase Activity” value in test [1] (2-ME 0.625 μM, 2T3 cell clone 17) is on record as 0.052; in test [1] (setting [15]), 0.059; in test [1] (2-ME 2.5 μM, 2T3 cell clone 17) it was 0.065; in test [1] (2-ME 5 μM, 2T3 cell clone 17) it was 0.102; in test [1] (2-ME 10 μM, 2T3 cell clone 17) it was 0.130. Also, the “Luciferase Activity (fold increase)” value stood at 1.2 fold in test [1] (setting [15]); 1.3 fold in test [1] (2-ME 2.5 μM, 2T3 cell clone 17); 2.0 fold in test [1] (2-ME 5 μM, 2T3 cell clone 17); 2.6 fold in test [1] (2-ME 10 μM, 2T3 cell clone 17). Moreover, the “Effect on luciferase activity” value in test [1] (2T3 C-17 cells) is recorded as “stimulated the reporter construct in a dose-dependent manner”.

For the molecule `CC1=C(/C=C/C(C)=C/C=C/C(C)=C/C(=O)O)C(C)(C)CCC1` [All-trans RA, all-trans retinoic acid, reference compound], the “Maximal effect, fold increase” value in test [1] (2T3 C-17 cells) and in test [2] was 5 fold each time. Besides, the “Luciferase Activity” value in test [1] (setting [16]) was 0.113; in test [1] (setting [17]), 0.142; in test [1] (setting [18]) it was 0.164; in test [1] (setting [19]), 0.219. The “Luciferase Activity, value in parentheses (fold increase)” value in test [1] (setting [16]) was 2.5 fold; in test [1] (setting [17]), 3.2 fold; in test [1] (setting [18]), 3.6 fold; in test [1] (setting [19]), 4.9 fold.

B1: noggin: BMP binding protein noggin (protein, UniProt Q13253 28-232, looked up)
Noggin: QHYLHIRPAPSDNLPLVDLIEHPDPIFDPKEKDLNETLLRSLLGGHYDPGFMATSPPEDRPGGGGGAAGGAEDLAELDQLLRQRPSGAMPSEIKGLEFSEGLAQGKKQRLSKKLRRKLQMWLWSQTFCPVLYAWNDLGSRFWPRYVKVGSCFSKRSCSVPEGMVCKPSKSVHLTVLRWRCQRRGGQRCGWIPIQYPIISECKCSC
With B1, in test [3] (500 ng/ml of noggin, 100 ng/ml of BMP-2), the “Effect on BMP-2-induced reporter activity” value is listed as “completely blocked”. In addition, the “Inhibition of BMP-2-induced luciferase activity” value in test [3] (dose-response) is reported as “inhibit BMP-2-induced luciferase activity in a dose-dependent manner”.

B2: PTH: Parathyroid Hormone (protein, UniProt P01270 32-115, looked up)
Parathyroid hormone: SVSEIQLMHNLGKHLNSMERVEWLRKKLQDVHNFVALGAPLAPRDAGSQRPRKKEDNVLVESHEKSLGEADKADVNVLTKAKSQ
modifications: Parathyroid hormone
Take B2: the “Luciferase Activity” value was 0.05 in test [1] (PTH 0.195 ng/ml, 2T3 C-17 cells); 0.053 in test [1] (PTH 0.39 ng/ml, 2T3 C-17 cells); 0.047 in test [1] (PTH 0.78 ng/ml, 2T3 C-17 cells); 0.05 in test [1] (PTH 1.56 ng/ml, 2T3 C-17 cells); 0.05 in test [1] (PTH 3.125 ng/ml, 2T3 C-17 cells); 0.048 in test [1] (PTH 6.25 ng/ml, 2T3 C-17 cells). In addition, the “Luciferase Activity” value in test [1] (PTH 12.5 ng/ml, 2T3 C-17 cells) amounted to 0.051; in test [1] (PTH 25 ng/ml, 2T3 C-17 cells), 0.053; in test [1] (PTH 50 ng/ml, 2T3 C-17 cells) it was 0.053; in test [1] (PTH 100 ng/ml, 2T3 C-17 cells), 0.055.
